The target of one assay is T1, Aurora A (Homo sapiens, UniProt O14965).
T1 construct: purchased Upstate Inc. 14-511
T1 sequence (O14965 1-403): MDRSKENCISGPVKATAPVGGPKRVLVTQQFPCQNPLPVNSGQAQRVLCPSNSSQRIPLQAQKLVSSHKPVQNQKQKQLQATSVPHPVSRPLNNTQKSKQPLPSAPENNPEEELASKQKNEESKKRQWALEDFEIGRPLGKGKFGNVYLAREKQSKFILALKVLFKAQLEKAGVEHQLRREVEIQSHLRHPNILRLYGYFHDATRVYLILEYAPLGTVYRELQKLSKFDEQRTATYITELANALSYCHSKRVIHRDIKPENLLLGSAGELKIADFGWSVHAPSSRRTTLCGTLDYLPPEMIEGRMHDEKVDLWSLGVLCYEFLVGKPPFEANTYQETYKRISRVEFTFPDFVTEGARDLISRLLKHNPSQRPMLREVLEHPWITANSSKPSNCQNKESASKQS
Kind of assay: In vitro kinase assay, Aurora A. The assay is classed as biochemical. The following applies: recombinant protein (Upstate). The method, boiled down:
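Recombinant human enzymes assayed per supplier protocol. IC50 derived with compound-free wells set as 0% inhibition and compound- and enzyme-free wells as 100% inhibition.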

Another assay deals with T2, CDK1/Cyclin B complex (Homo sapiens, UniProt P06493).
T2 construct: purchased Upstate Inc. 14-450
Kind of assay: In vitro kinase assay, CDK1/Cyclin B complex. The assay is classed as biochemical. The following applies: recombinant protein (Upstate). On the procedure: Inhibitory activity against Aurora A, CDK1/Cyclin B complex, CDK2/Cyclin E complex and CDK3/Cyclin E complex were measured by in vitro kinase assay using recombinant proteins. The assays were carried out by using recombinant proteins (Upstate Inc.) for Aurora A, CDK1/Cyclin B complex, CDK2/Cyclin E complex and CDK3/Cyclin E complex (respective cat. nos. 14-511, 14-450, 14-448 and 14-487), in accordance with the procedure described in the product instructions thereof. The 50% inhibitory concentrations (IC50 values) were calculated by assigning measured values in the case of not containing a test compound to an inhibition of 0%, and assigning measured values in the case of not containing a test compound and enzyme to an inhibition of 100%.

The target in a further assay is CDK2/Cyclin E complex (Homo sapiens, UniProt P24941). The experiment in a line: In vitro kinase assay, CDK2/Cyclin E complex. The assay is classed as biochemical. The following applies: recombinant protein (Upstate); read-out: CDK2/cyclinE IC50. On the procedure:
(§1) Inhibitory activity against Aurora A, CDK1/Cyclin B complex, CDK2/Cyclin E complex and CDK3/Cyclin E complex were measured by in vitro kinase assay using recombinant proteins.

For another assay, the target named is T3, CDK3/Cyclin E complex (Homo sapiens, UniProt Q00526).
T3 construct: purchased Upstate Inc. 14-487
Kind of assay: In vitro kinase assay, CDK3/Cyclin E complex. The assay is classed as biochemical. To be noted: recombinant protein (Upstate); read-out: CDK3/cyclinE IC50. How it is done:
as §1

Assay [1] deals with colon carcinoma cell line SW620. Kind of assay: Cell proliferation inhibitory activity, SW620. Type of assay: cell-based, human. To be noted: cells counted 4 days later with Cell Counting Kit-8. An outline of the steps:
(§2)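 Read-out: Cell Counting Kit-8 cell counts taken 4 days after cells in medium were added to graded test-substance concentrations. Incubation was at 37° C under 5% CO2. IC50 values were based on vehicle wells set to 0% inhibition and wells lacking compound and cells set to 100%.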

The subject of assay [2] is prostate cancer cell line DU 145. Kind of assay: Cell proliferation inhibitory activity, DU 145. The assay is classed as cell-based, human. To be noted: cells counted 4 days later with Cell Counting Kit-8. How it is done:
(§3) Evaluations were carried out using colon carcinoma cell line SW620 (Cat. No. CCL-227), lung carcinoma cell line NCI-H460 (Cat. No. HTB-177), prostate cancer cell line DU 145 (Cat. No. HTB-81), breast cancer cell line MDA-MB-231 (Cat. No. HTB26) and leukemia cell line KG-1a (Cat. No. CCL-246.1) purchased from ATCC, pancreatic cancer cell line MIAPaCa-2 (Cat. No. CRL-1420) purchased from Dainippon Pharmaceutical, and ovarian cancer cell line IGROV1 received from the Netherland Cancer Institute. The cells were cultured under the conditions recommended by the supplier for each cell line, or with respect to IGROV1, according to the method described in Cancer Res. 59: 4559-4563, 1999. Cells suspended in media were added to solutions containing the test substances at various concentrations followed by culturing in a 5% CO2 incubator at 37° C. The numbers of cells were counted 4 days later with the Cell Counting Kit-8. IC50 values were calculated by assigning measured values in the case of not containing a test substance to an inhibition of 0%, and assigning measured values in the case of not containing a test substance or cells to an inhibition of 100%.

The subject of assay [3] is lung carcinoma cell line NCI-H460. Kind of assay: Cell proliferation inhibitory activity, NCI-H460. Type of assay: cell-based. To be noted: cells counted 4 days later with Cell Counting Kit-8. On the procedure: as §3
In assay [4] the test system is breast cancer cell line MDA-MB-231. The experiment in a line: Cell proliferation inhibitory activity, MDA-MB-231. Type of assay: cell-based. To be noted: cells counted 4 days later with Cell Counting Kit-8. On the procedure: as §3
For assay [5], the system named is ovarian cancer cell line IGROV1. Kind of assay: Cell proliferation inhibitory activity, IGROV1. Type of assay: cell-based. To be noted: cells counted 4 days later with Cell Counting Kit-8. How it is done: as §3
For another assay, the system named is leukemia cell line KG-1a. Kind of assay: Cell proliferation inhibitory activity, KG-1a. The assay is classed as cell-based. To be noted: Homo sapiens, 96 h, cells counted 4 days later with Cell Counting Kit-8. The method, boiled down: as §2

Data on 8 compounds can be found in patent publication US7879887B2, “α-amino acid derivatives and medicaments containing the same as an active ingredient” (Nissan Chemical Industries, Ltd., priority 2006, dated 2011).

T3 sequence (Q00526 whole entry): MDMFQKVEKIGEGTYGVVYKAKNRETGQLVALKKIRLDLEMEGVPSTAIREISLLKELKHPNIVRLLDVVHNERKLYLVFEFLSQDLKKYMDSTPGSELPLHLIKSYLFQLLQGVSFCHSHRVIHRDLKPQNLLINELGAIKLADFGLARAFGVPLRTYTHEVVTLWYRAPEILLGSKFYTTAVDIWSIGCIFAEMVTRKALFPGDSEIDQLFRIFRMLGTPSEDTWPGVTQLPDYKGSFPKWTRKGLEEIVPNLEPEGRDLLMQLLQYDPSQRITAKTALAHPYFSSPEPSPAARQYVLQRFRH
T3 sequence (P24864 whole entry partner): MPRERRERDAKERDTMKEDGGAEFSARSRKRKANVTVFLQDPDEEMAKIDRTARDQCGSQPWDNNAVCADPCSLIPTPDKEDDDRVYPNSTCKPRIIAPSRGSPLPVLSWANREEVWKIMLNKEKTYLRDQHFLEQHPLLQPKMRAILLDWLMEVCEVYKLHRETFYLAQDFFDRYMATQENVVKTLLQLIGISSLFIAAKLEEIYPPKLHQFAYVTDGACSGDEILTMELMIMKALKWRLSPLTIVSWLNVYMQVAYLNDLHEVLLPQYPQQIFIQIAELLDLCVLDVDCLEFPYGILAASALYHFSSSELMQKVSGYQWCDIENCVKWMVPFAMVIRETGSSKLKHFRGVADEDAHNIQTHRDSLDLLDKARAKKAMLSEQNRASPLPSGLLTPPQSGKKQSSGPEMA
T2 sequence (P06493 whole entry): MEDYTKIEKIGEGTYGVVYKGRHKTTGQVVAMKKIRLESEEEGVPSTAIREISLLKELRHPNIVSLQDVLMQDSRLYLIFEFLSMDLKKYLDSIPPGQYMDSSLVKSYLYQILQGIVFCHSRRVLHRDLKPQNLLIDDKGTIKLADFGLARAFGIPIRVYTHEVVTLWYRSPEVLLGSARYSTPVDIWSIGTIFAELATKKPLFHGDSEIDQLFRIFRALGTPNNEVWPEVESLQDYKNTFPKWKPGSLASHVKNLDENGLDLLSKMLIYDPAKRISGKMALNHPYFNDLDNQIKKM
T2 sequence (P14635 whole entry partner): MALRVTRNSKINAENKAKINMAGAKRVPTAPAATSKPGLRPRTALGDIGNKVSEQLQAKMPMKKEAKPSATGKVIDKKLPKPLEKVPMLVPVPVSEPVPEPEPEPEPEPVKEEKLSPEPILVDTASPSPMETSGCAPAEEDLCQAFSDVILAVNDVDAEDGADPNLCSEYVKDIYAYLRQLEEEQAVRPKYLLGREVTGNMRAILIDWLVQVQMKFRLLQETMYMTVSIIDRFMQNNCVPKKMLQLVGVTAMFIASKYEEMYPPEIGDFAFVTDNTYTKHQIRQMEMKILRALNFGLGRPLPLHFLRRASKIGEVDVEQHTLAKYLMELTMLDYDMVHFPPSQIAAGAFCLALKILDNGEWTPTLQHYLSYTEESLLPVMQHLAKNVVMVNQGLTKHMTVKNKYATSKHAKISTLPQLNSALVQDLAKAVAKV

With `O=C(Nc1nc2ccc3[nH]ncc3c2s1)C1(Nc2cccc(O)c2)CC1` [compound 122], the IC50 at Aurora A was 168 nM; on CDK1/Cyclin B complex, 197 nM; at CDK2/Cyclin E complex, 56 nM; at CDK3/Cyclin E complex, 63 nM; in assay [1] (Homo sapiens, SW-620, 96 h), 1100 nM; in [2] (Homo sapiens, 96 h) it was 4500 nM. The IC50 in assay [3] (Homo sapiens, 96 h) was 4000 nM; in [4] (Homo sapiens, 96 h) it was 3100 nM; in [5] (Homo sapiens, IGROV-1, 96 h), 4900 nM; with leukemia cell line KG-1a, under 100 nM.

As for `CC(C)(Nc1ccc(Cl)c(OCCCS(N)(=O)=O)c1)C(=O)Nc1nc2c(C(F)(F)F)cc3[nH]ncc3c2s1` [compound 94], the IC50 in [1] turned out to be 1800 nM; in assay [2], 4200 nM; in assay [3] it was 2000 nM; in [4] it was 2800 nM; in assay [5], 4500 nM.

For `O=C(CNc1cccc(F)c1)Nc1nc2ccc3[nH]ncc3c2s1` [compound 3], the IC50 at CDK2/Cyclin E complex stood at 199 nM; at CDK3/Cyclin E complex, 391 nM; in assay [1] (Homo sapiens, SW-620, 96 h) it was 1700 nM; in [4] (Homo sapiens, 96 h), 4700 nM; in [5] (Homo sapiens, IGROV-1, 96 h) it was 4900 nM; in the assay with leukemia cell line KG-1a, 100 nM.

With `O=C(CNc1ccccc1)Nc1nc2ccc3[nH]ncc3c2s1` [compound 104], the IC50 was 412 nM at CDK2/Cyclin E complex; 395 nM on CDK3/Cyclin E complex; 1000 nM in [1] (Homo sapiens, SW-620, 96 h); 4900 nM in assay [4] (Homo sapiens, 96 h); 4700 nM in [5] (Homo sapiens, IGROV-1, 96 h); under 100 nM in the assay with leukemia cell line KG-1a.

On to `O=C(Nc1nc2ccc3[nH]ncc3c2s1)C1(Nc2ccc(Cl)cc2)CCCCC1` [compound 116], for which the IC50 turned out to be 486 nM at CDK1/Cyclin B complex; 245 nM at CDK2/Cyclin E complex; 412 nM at CDK3/Cyclin E complex; 1000 nM in assay [1] (Homo sapiens, SW-620, 96 h); 3400 nM in assay [2] (Homo sapiens, 96 h); 4900 nM in [5] (Homo sapiens, IGROV-1, 96 h). The same compound registered an IC50 in the assay on leukemia cell line KG-1a of 200 nM.

Consider `COC(=O)Nc1cc(NC(C)(C)C(=O)Nc2nc3ccc4[nH]ncc4c3s2)ccc1Cl` [compound 50], for which the IC50 is 426 nM on Aurora A; 435 nM on CDK2/Cyclin E complex; 2500 nM in assay [1] (Homo sapiens, SW-620, 96 h); 4800 nM in assay [5] (Homo sapiens, IGROV-1, 96 h); under 100 nM in the assay on leukemia cell line KG-1a.

For the compound `O=C(Nc1nc2ccc3[nH]ncc3c2s1)C1(Nc2ccc(Cl)cc2)CCCC1` [compound 115], the IC50 is 154 nM on CDK2/Cyclin E complex; 217 nM on CDK3/Cyclin E complex; 700 nM in [1] (Homo sapiens, SW-620, 96 h); 3200 nM in [2] (Homo sapiens, 96 h); 3900 nM in [4] (Homo sapiens, 96 h); 4800 nM in assay [5] (Homo sapiens, IGROV-1, 96 h). In the assay with leukemia cell line KG-1a, this compound yielded an IC50 of under 100 nM.

`Nc1cccc(NCC(=O)Nc2nc3ccc4[nH]ncc4c3s2)c1` [compound 11]: the IC50 at CDK2/Cyclin E complex is 192 nM; at CDK3/Cyclin E complex it was 355 nM; in assay [1] (Homo sapiens, SW-620, 96 h) it was 1600 nM; in assay [5] (Homo sapiens, IGROV-1, 96 h) it was 4800 nM; in the assay on leukemia cell line KG-1a it was under 100 nM.
